Laboratory results reported in Sander's compilation of Henry's law constants.

Assay: Henry solubility constant Hcp at 298.15 K (mol/(m3 Pa))
[1] = reference: Butler et al. (1935)
[2] = reference: Straver and de Loos (2005)
[3] = reference: Schuhfried et al. (2015)
[4] = reference: Dohányosová et al. (2004)
[5] = reference: Charles and Destaillats (2005)
[6] = reference: McFall et al. (2020)
[7] = reference: Hovorka et al. (2019)
[8] = reference: Murphy et al. (1983a)
[9] = reference: Christie and Crisp (1967)

For `CCCO` [1-propanol], the “Henry solubility constant Hcp” value (reference: Burnett (1963)) was 1.6, the “Henry solubility constant Hcp” value [1] was 1.4 and the “Henry solubility constant Hcp” value (reference: Gupta et al. (2000)) was 1.2. For the same compound, the “Henry solubility constant Hcp” value (reference: Richon et al. (1985)) was 1.8, the “Henry solubility constant Hcp” value (reference: Snider and Dawson (1985)) was 1.3 and the “Henry solubility constant Hcp” value [2] was 1.5. The “Henry solubility constant Hcp” value (reference: Vitenberg and Dobryakov (2008)) was 1.5.

For `C=CC(=C)C` [2-methyl-1,3-butadiene], the “Henry solubility constant Hcp” value (reference: Leng et al. (2013)) was 0.00034 and the “Henry solubility constant Hcp” value [3] was 0.0003.

For `[O][N+](=O)[O-]` [nitrogen trioxide], the “Henry solubility constant Hcp” value (reference: Thomas et al. (1998)) was 0.018.

With `COP(=S)(OC)Oc1ccc([N+](=O)[O-])c(C)c1` [fenitrothion] the “Henry solubility constant Hcp” value (reference: Metcalfe et al. (1980)) was 11.

For `CCC[N+](=O)[O-]` [1-nitropropane], the “Henry solubility constant Hcp” value (reference: Beneš and Dohnal (1999)) was 0.13.

For `C1CCCCCCC1` [cyclooctane], the “Henry solubility constant Hcp” value [4] was 6.9e-05.

With `C#CC=C` [3-buten-1-yne] the “Henry solubility constant Hcp” value (reference: Simpson and Lovell (1962)) was 0.00038.

With `CCOC(=O)C(C)CC` (configuration not stated) [ethyl 2-methylbutanoate] the “Henry solubility constant Hcp” value (reference: Pollien et al. (2003)) was 0.0089 and the “Henry solubility constant Hcp” value (reference: Roberts and Pollien (1997)) was 0.027.

In the case of `[2H]c1c([2H])c([2H])c([2H])c([2H])c1[2H]` [benzene-d6], the “Henry solubility constant Hcp” value (reference: Wasik and Tsang (1970)) is reported as 0.0016.

For `Brc1ccc(Oc2ccccc2)cc1` [4-bromodiphenyl ether], the “Henry solubility constant Hcp” value [5] was 0.058.

For `CN1CCCC1=O` [N-methyl-2-pyrrolidone], the “Henry solubility constant Hcp” value (reference: Bernauer and Dohnal (2009)) was 2100 and the “Henry solubility constant Hcp” value (reference: Kim et al. (2000)) was 3100.

In the case of `CC(C)CC(=O)O` [3-methylbutanoic acid], the “Henry solubility constant Hcp” value (reference: Amoore and Buttery (1978)) is reported as 12, the “Henry solubility constant Hcp” value (reference: Khan and Brimblecombe (1992)) is reported as 12 and the “Henry solubility constant Hcp” value (reference: Khan et al. (1995)) is reported as 12. For the same compound, the “Henry solubility constant Hcp” value (reference: Kim and Kim (2016)) was 27 and the “Henry solubility constant Hcp” value (reference: von Hartungen et al. (2004)) was 11.

With `CCCCOCCOC(C)=O` [2-butoxyethyl ethanoate] the “Henry solubility constant Hcp” value (reference: Kim et al. (2000)) was 1.8.

In the case of `CCCCCC(=O)OC` [methyl hexanoate], the “Henry solubility constant Hcp” value (reference: Aprea et al. (2007)) is reported as 0.019.

For `C/C=C/C(=O)C1=C(C)C=CCC1(C)C` [(E)-β-damascenone], the “Henry solubility constant Hcp” value (reference: Wieland et al. (2015)) was 0.32.

For `C=C/C(C)=C/C/C=C(\C)CCC=C(C)C` [α-farnesene], the “Henry solubility constant Hcp” value [3] was 8.1e-06.

For `COc1cc(CCC(C)=O)ccc1O` [zingerone], the “Henry solubility constant Hcp” value [6] was 12000.

In the case of `CN1CCN(C)CC1` [N,N'-dimethylpiperazine], the “Henry solubility constant Hcp” value (reference: Nguyen (2013)) is reported as 200.

For `c1ccsc1` [thiophene], the “Henry solubility constant Hcp” value (reference: Haimi et al. (2006)) was 0.0041.

In the case of `CF` [fluoromethane], the “Henry solubility constant Hcp” value (reference: Glew and Moelwyn-Hughes (1953)) is reported as 0.00058 and the “Henry solubility constant Hcp” value (reference: Swain and Thornton (1962)) is reported as 0.00058.

With `ClNCl` [dichloramine] the “Henry solubility constant Hcp” value (reference: Holzwarth et al. (1984)) was 0.28.

For `C=COC(C)=O` [ethenyl ethanoate], the “Henry solubility constant Hcp” value (reference: Böhme et al. (2008)) was 0.02.

With `ClCCCCCCCCCl` [1,8-dichlorooctane] the “Henry solubility constant Hcp” value (reference: Sarraute et al. (2006)) was 0.0071.

In the case of `CCC(C)CO` (configuration not stated) [2-methyl-1-butanol], the “Henry solubility constant Hcp” value [1] is reported as 0.7 and the “Henry solubility constant Hcp” value (reference: Fenclová et al. (2010)) is reported as 0.78.

In the case of `O=C1CCCC1` [cyclopentanone], the “Henry solubility constant Hcp” value (reference: Hawthorne et al. (1985)) is reported as 0.82.

For `CC(C)(N)CO` [2-amino-2-methyl-1-propanol], the “Henry solubility constant Hcp” value (reference: Nguyen (2013)) was 700.

In the case of `Cc1cccc(O)c1` [1-hydroxy-3-methylbenzene], the “Henry solubility constant Hcp” value (reference: Dohnal and Fenclová (1995)) is reported as 12 and the “Henry solubility constant Hcp” value (reference: Feigenbrugel et al. (2004b)) is reported as 7.9.

For `CC(=O)C(C)C` [3-methyl-2-butanone], the “Henry solubility constant Hcp” value [7] was 0.093.

In the case of `CC(=O)CC(C)C` [4-methyl-2-pentanone], the “Henry solubility constant Hcp” value [7] is reported as 0.065 and the “Henry solubility constant Hcp” value (reference: Kim et al. (2000)) is reported as 0.039.

For `C=Cc1ccccc1` [ethenylbenzene], the “Henry solubility constant Hcp” value (reference: Bissonette et al. (1990)) was 0.0029.

With `Clc1cc(-c2ccc(Cl)c(Cl)c2Cl)cc(Cl)c1Cl` [2,3,3',4,4',5'-hexachlorobiphenyl] the “Henry solubility constant Hcp” value [8] was 0.017.

For `CNC` [dimethylamine], the “Henry solubility constant Hcp” value [9] was 0.56.

With `Clc1ccc(-c2cc(Cl)ccc2Cl)cc1` [2,4',5-trichlorobiphenyl] the “Henry solubility constant Hcp” value [8] was 0.049.

For `O=C=C=C=O` [carbon suboxide], the “Henry solubility constant Hcp” value (reference: Keßel et al. (2017)) was 0.011.

For `CCOC(=O)C(F)(F)F` [trifluoroethanoic acid, ethyl ester], the “Henry solubility constant Hcp” value (reference: Kutsuna and Kaneyasu (2021)) was 0.00071 and the “Henry solubility constant Hcp” value (reference: Kutsuna et al. (2005)) was 0.00089.

With `O=C(O)C(F)(F)C(F)(F)C(F)(F)C(F)(F)C(F)(F)C(F)(F)F` [perfluoroheptanoic acid] the “Henry solubility constant Hcp” value (reference: Kwan (2001)) was 1.7.

With `Fc1ccccc1` [fluorobenzene] the “Henry solubility constant Hcp” value (reference: Hartkopf and Karger (1973)) was 0.0015.

In the case of `CCOC(C)(C)CC` [2-ethoxy-2-methylbutane], the “Henry solubility constant Hcp” value (reference: Haimi et al. (2006)) is reported as 0.0048.

In the case of `CCC(C)O[N+](=O)[O-]` (configuration not stated) [2-butyl nitrate], the “Henry solubility constant Hcp” value (reference: Hauff et al. (1998)) is reported as 0.0044 and the “Henry solubility constant Hcp” value (reference: Luke et al. (1989)) is reported as 0.0063.

For `OCCN1CCNCC1` [N-(2-hydroxyethyl)piperazine], the “Henry solubility constant Hcp” value (reference: Nguyen (2013)) was 2900.

With `O=C(O)C(Br)(Br)Br` [tribromoethanoic acid] the “Henry solubility constant Hcp” value (reference: Bowden et al. (1998a)) was 2900.

With `CCCCCCCO` [1-heptanol] the “Henry solubility constant Hcp” value (reference: Lei et al. (2007)) was 0.36 and the “Henry solubility constant Hcp” value (reference: Shunthirasingham et al. (2013)) was 0.38.

For `C[C@@H]1CCCC[C@@H]1C` [cis-1,2-dimethylcyclohexane], the “Henry solubility constant Hcp” value [4] was 2.7e-05.

For `CCOCc1ccc(O)c(OC)c1` [vanillyl ethyl ether], the “Henry solubility constant Hcp” value [6] was 410.

In the case of `Cc1cnccn1` [2-methylpyrazine], the “Henry solubility constant Hcp” value (reference: Buttery et al. (1971)) is reported as 4.5.

With `CCCCN` [1-butanamine] the “Henry solubility constant Hcp” value (reference: Butler and Ramchandani (1935)) was 0.65 and the “Henry solubility constant Hcp” value [9] was 0.56.

In the case of `CCCC(=O)CC` [3-hexanone], the “Henry solubility constant Hcp” value [7] is reported as 0.076.

In the case of `N=C=O` [isocyanic acid], the “Henry solubility constant Hcp” value (reference: Roberts et al. (2011)) is reported as 0.21.

In the case of `FC(F)F` [trifluoromethane], the “Henry solubility constant Hcp” value (reference: Maaßen (1995)) is reported as 0.00012, the “Henry solubility constant Hcp” value (reference: Miguel et al. (2000)) is reported as 0.00021 and the “Henry solubility constant Hcp” value (reference: Zheng et al. (1997)) is reported as 0.00013.

In the case of `Clc1ccc(Cl)c(-c2c(Cl)cc(Cl)c(Cl)c2Cl)c1` [2,2',3,4,5',6-hexachlorobiphenyl], the “Henry solubility constant Hcp” value [8] is reported as 0.016.

For `CN=C=S` [methyl isothiocyanate], the “Henry solubility constant Hcp” value (reference: Worthington and Wade (2007)) was 0.16.

For `CCCCOC=O` [butyl methanoate], the “Henry solubility constant Hcp” value (reference: Wittig et al. (2001)) was 0.019.

In the case of `Cc1cc(C)c(N)cc1C` [2,4,5-trimethylbenzenamine], the “Henry solubility constant Hcp” value (reference: Jayasinghe et al. (1992)) is reported as 3.9.

For `CC(=O)N1CCCC1` [N-acetylpyrrolidine], the “Henry solubility constant Hcp” value (reference: Gibbs et al. (1991)) was 6200.

In the case of `FC(F)(F)C(F)(F)F` [hexafluoroethane], the “Henry solubility constant Hcp” value (reference: Bonifácio et al. (2001)) is reported as 6.5e-07, the “Henry solubility constant Hcp” value (reference: Park et al. (1982)) is reported as 5.3e-07 and the “Henry solubility constant Hcp” value (reference: Wen and Muccitelli (1979)) is reported as 5.6e-07.

With `FC(Cl)C(F)(F)F` (configuration not stated) [1-chloro-1,2,2,2-tetrafluoroethane] the “Henry solubility constant Hcp” value (reference: Kutsuna (2013)) was 0.00011, the “Henry solubility constant Hcp” value (reference: Maaßen (1995)) was 0.0001 and the “Henry solubility constant Hcp” value (reference: Reichl (1995)) was 0.00011.

For `Cc1ccc(Br)cc1` [1-bromo-4-methylbenzene], the “Henry solubility constant Hcp” value (reference: Brockbank et al. (2013)) was 0.0034.

With `CC(=O)CCC=C(C)C` [6-methyl-5-hepten-2-one] the “Henry solubility constant Hcp” value (reference: Wu et al. (2022b)) was 0.12.

In the case of `CCCCCC` [hexane], the “Henry solubility constant Hcp” value (reference: Jönsson et al. (1982)) is reported as 5.9e-06, the “Henry solubility constant Hcp” value (reference: Park et al. (1997)) is reported as 7.4e-06 and the “Henry solubility constant Hcp” value (reference: Tsonopoulos and Wilson (1983)) is reported as 6.7e-06.

In the case of `COC(=O)C(C)O` (configuration not stated) [methyl 2-hydroxypropanoate], the “Henry solubility constant Hcp” value (reference: Sanz and Gmehling (2005)) is reported as 9.1.

In the case of `Clc1ccc2c(c1)Oc1ccc(Cl)cc1O2` [2,7-dichlorodibenzo-p-dioxin], the “Henry solubility constant Hcp” value (reference: Santl et al. (1994)) is reported as 0.17.

With `CS` [methanethiol] the “Henry solubility constant Hcp” value (reference: De Bruyn et al. (1995b)) was 0.002 and the “Henry solubility constant Hcp” value (reference: Hine and Weimar (1965)) was 0.0033.

For `CNC(C)=O` [N-methylacetamide], the “Henry solubility constant Hcp” value (reference: Bernauer and Dohnal (2008)) was 3200.

For `CC1=CC[C@H](C(C)C)C=C1` [(R)-(−)-α-phellandrene], the “Henry solubility constant Hcp” value [3] was 0.00034.

For `Clc1ccc(-c2cc(Cl)c(Cl)cc2Cl)cc1Cl` [2,3',4,4',5-pentachlorobiphenyl], the “Henry solubility constant Hcp” value [5] was 0.018 and the “Henry solubility constant Hcp” value [8] was 0.025.

With `FC(C(F)(F)F)C(F)(F)F` [1,1,1,2,3,3,3-heptafluoropropane] the “Henry solubility constant Hcp” value (reference: Reichl (1995)) was 1.4e-05.

For `CCCCO[N+](=O)[O-]` [1-butyl nitrate], the “Henry solubility constant Hcp” value (reference: Hauff et al. (1998)) was 0.0063 and the “Henry solubility constant Hcp” value (reference: Luke et al. (1989)) was 0.01.

For `OCOO` [hydroxymethyl hydroperoxide], the “Henry solubility constant Hcp” value (reference: O’Sullivan et al. (1996)) was 16000, the “Henry solubility constant Hcp” value (reference: Staffelbach and Kok (1993)) was 16000 and the “Henry solubility constant Hcp” value (reference: Zhou and Lee (1992)) was 4700.

For `CC(=O)C(C)O` (configuration not stated) [3-hydroxy-2-butanone], the “Henry solubility constant Hcp” value [2] was 0.57 and the “Henry solubility constant Hcp” value (reference: Wu et al. (2022b)) was 3.1.

For `C1CCOCC1` [tetrahydropyran], the “Henry solubility constant Hcp” value (reference: Ondo and Dohnal (2007)) was 0.083.

In the case of `C=CCN=C=S` [allyl isothiocyanate], the “Henry solubility constant Hcp” value (reference: Souchon et al. (2004)) is reported as 0.021.

For `Clc1cccc(-c2ccc(Cl)cc2Cl)c1` [2,3',4-trichlorobiphenyl], the “Henry solubility constant Hcp” value [8] was 0.062.
